Results from US10633389B2, “CARM1 inhibitors and uses thereof” (Epizyme, Inc., priority 2013, dated 2020).

These compounds were tested on asymmetric di-methyl PABP1 in RKO cells (assay: RKO methylation assay, In Cell Western (ICW) for asymmetric di-methyl PABP1). Settings: Homo sapiens, RKO, Cellular potencies, ICW PABP1me2a.
Assay type: cell-based
Method in brief: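 In-cell Western on fixed RKO cells after 48 h compound exposure: anti-asymmetric di-methyl PABP1 signal at 800 nm over DRAQ5 DNA signal at 700 nm. Percent inhibition set between DMSO wells and wells with 20 μM reference compound; IC50 curves fitted in triplicate.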

Compound | IC50
CNC[C@@H](O)COc1ccc(Cl)c(-c2nc(N[C@H]3CO[C@H](C)C3)c(C)c(-c3c(C)noc3C)n2)c1 [Example 198-3] | < 5 µM
CNCC(O)COc1ccc(Cl)c(-c2nc(NC3CC(O)(C(F)(F)F)C3)c(C)c(-c3c(C)noc3C)n2)c1 (stereo not shown) [Example 38-3] | < 5 µM
CNCC(O)COc1cccc(-c2nc(NC3CC3)c(C)c(-c3c(C)noc3C)n2)c1 (stereo not shown) [Example 293-1a] | < 5 µM
CCO[C@@H]1CCC[C@@H]1N(CC)c1nc(-c2cc(OC[C@H](O)CNC)ccc2Cl)nc(-c2c(C)noc2C)c1C [Example 254-3] | 5 to 10 µM
CNCC(O)COc1cccc(-c2nc(SC)c(C)c(-c3c(C)noc3C)n2)c1 (stereo not shown) [Example 53-1a] | 10 to 20 µM
CNCC(O)COc1cccc(-c2nc(N[C@@H]3CCOC3)c(C)c(N3CC[C@@H](c4cccnc4)C3)n2)c1 (stereo partly shown) [Example 467-1a] | < 5 µM
CNCC(O)COc1cccc(-c2nc(-c3ccc(S(C)(=O)=O)cc3)cc(N(C)C3CCOCC3)n2)c1 (stereo not shown) [Example 499-1a] | < 5 µM
CNCC(O)COc1cccc(-c2nc(NC3CCOC3)c(C)c(N3CCN(CC(F)F)C(C)(C)C3)n2)c1 (stereo not shown) [Example 457-1a] | 10 to 20 µM
CNC[C@@H](O)COc1ccc(Cl)c(-c2nc(N[C@@H]3CCOC3)c(C)c(-c3c(C)noc3C)n2)c1 [Example 100-3] | < 5 µM
CNCC(O)COc1cccc(-c2nc(NC3CCCN(C(=O)N(C)C)C3)c(C)c(-c3c(C)noc3C)n2)c1 (stereo not shown) [Example 216-1a] | < 5 µM
CNCC(O)COc1cccc(-c2nc(-c3c(C)noc3C)c(C)c(N(C)[C@H]3C[C@@](C)(OC)C3)n2)c1 (stereo partly shown) [Example 20-3] | < 5 µM
CNC[C@H](O)COc1ccc(Cl)c(-c2nc(-c3c(C)noc3C)c(C)c(N3CCN(C)C(C(F)F)C3)n2)c1 (stereo partly shown) [Example 74-3] | < 5 µM
CNCC(O)COc1cccc(-c2nc(N[C@@H]3CCOC3)c(C)c(N3CCN(C4CC4)[C@H](C)C3)n2)c1 (stereo partly shown) [Example 466-1a] | < 5 µM
CNC[C@@H](O)COc1cccc(-c2nc(-c3cn(S(C)(=O)=O)c4ncncc34)cc(N(C)C3CCOCC3)n2)c1 [Example 511-1a] | 5 to 10 µM
CNC[C@@H](O)COc1ccc(Cl)c(-c2nc(N[C@H]3C[C@H](OC)C3)c(Cl)c(-c3c(C)noc3C)n2)c1 [Example 217-3] | < 5 µM
CNCC(O)COc1cccc(-c2nc(-c3c(C)noc3C)c(C)c(N3CCC4(CC3)CN(S(C)(=O)=O)C4)n2)c1 (stereo not shown) [Example 179-1a] | < 5 µM
CNCC(O)COc1cccc(-c2nc(N[C@@H]3CCOC3)c(C)c(-c3cnc4[nH]ccc4c3)n2)c1 (stereo partly shown) [Example 355-1a] | 10 to 20 µM
CNCC(O)COc1cccc(-c2nc(N(C)C3CCOCC3)cc(N3C[C@@H]4C[C@H]3CN4C)n2)c1 (stereo partly shown) [Example 543-1a] | 10 to 20 µM
CNCC(O)COc1cccc(-c2nc(N[C@@H]3CCOC3)c(C)c(N3CCC(OC)CC3)n2)c1 (stereo partly shown) [Example 370-1a] | 5 to 10 µM
CNC[C@@H](O)COc1ccc(C(F)(F)F)c(-c2nc(NC3CCN(C(=O)OC)CC3)c(C)c(-c3c(C)noc3C)n2)c1 [Example 204-3] | < 5 µM
CNC[C@@H](O)COc1ccc(Cl)c(-c2nc(-c3c(C)noc3C)c(C)c(N3Cc4cccc(F)c4C3)n2)c1 [Example 267-3] | < 5 µM
CNCC(O)COc1cccc(-c2nc(N[C@@H]3CCOC3)c(C)c(N3CC4CN(S(C)(=O)=O)CC4C3)n2)c1 (stereo partly shown) [Example 11-3] | 5 to 10 µM
CNCC(O)COc1cccc(-c2nc(-c3c(C)noc3C)cc(N(CCOC)CCOC)n2)c1 (stereo not shown) [Example 52-1] | 10 to 20 µM
CNCC(O)COc1ccc(Cl)c(-c2nc(N[C@H]3CCN(C(=O)OC)C[C@H]3F)c(C)c(-c3c(C)noc3C)n2)c1 (stereo partly shown) [Example 4-3] | < 5 µM
CNC[C@@H](O)COc1cccc(-c2nc(NC3CCN(C(=O)OC)CC3)c(C)c(-c3c(C)noc3C)n2)c1 [Example 170-1a] | < 5 µM

Compound | IC50
CNCC(O)COc1cccc(-c2nc(-c3c(C)noc3C)c(C)c(N(C)C)n2)c1 (stereo not shown) [Example 308-1a] | < 5 µM
CNCC(O)COc1cccc(-c2nc(-c3cnc4c(C(=O)N(C)C)cnn4c3)cc(N(C)C3CCOCC3)n2)c1 (stereo not shown) [Example 514-1a] | 5 to 10 µM
CNCC(O)COc1cccc(-c2nc(NCC3CCN(C(=O)OC)CC3)c(C)c(-c3c(C)noc3C)n2)c1 (stereo not shown) [Example 184-1a] | < 5 µM
CNCC(O)COc1cccc(-c2nc(NCC3CCOCC3)cc(-c3c(C)noc3C)n2)c1 (stereo not shown) [Example 78-1a] | 5 to 10 µM
CNC[C@@H](O)COc1ccc(Cl)c(-c2nc(NC3CCN(C)CC3(F)F)c(C)c(-c3c(C)noc3C)n2)c1 (stereo partly shown) [Example 258-3] | < 5 µM
CNCC(O)COc1cccc(-c2nc(-c3cnc4cnccn34)cc(N(C)C3CCOCC3)n2)c1 (stereo not shown) [Example 490-1a] | < 5 µM
CNC[C@@H](O)COc1ccc(Cl)c(-c2nc(N[C@H]3CCN(C4CC4)C[C@H]3F)c(Cl)c(-c3c(C)noc3C)n2)c1 [Example 195-3] | < 5 µM
CNC[C@H](O)COc1ccc(F)c(-c2nc(NC3CCOC(C)C3)c(C)c(-c3c(C)noc3C)n2)c1 (stereo partly shown) [Example 73-3] | < 5 µM
CNC[C@@H](O)COc1ccc(Cl)c(-c2nc(-c3c(C)noc3C)c(C)c(N3Cc4cn(S(C)(=O)=O)nc4C3)n2)c1 [Example 293-3] | < 5 µM
CNCC(O)COc1cccc(-c2nc(-c3c(C)noc3C)cc(N3CCN(C(C)=O)C[C@H]3C)n2)c1 (stereo partly shown) [Example 39-1a] | 5 to 10 µM
CNC[C@@H](O)COc1ccc(Cl)c(-c2nc(-c3c(C)noc3C)c(C)c(N3CCC4(CCCO4)C3)n2)c1 (stereo partly shown) [Example 289-3] | < 5 µM
CNC[C@@H](O)COc1ccc(Cl)c(-c2nc(-c3c(C)noc3C)c(C)c(N3CCc4ccncc43)n2)c1 [Example 174-3] | < 5 µM
CNCC(O)COc1cccc(-c2nc(N[C@@H]3CCN(C4CC4)C[C@H]3F)c(C)c(-c3c(C)noc3C)n2)c1 (stereo partly shown) [Example 261-1a] | < 5 µM
CCS(=O)(=O)N1CC2(CCN(c3nc(-c4cccc(OCC(O)CNC)c4)nc(-c4c(C)noc4C)c3C)CC2)C1 (stereo not shown) [Example 253-1a] | < 5 µM
CNCC(O)COc1cccc(-c2nc(-c3c(C)noc3C)c(C)c(N3[C@@H]4CC[C@H]3CN(C)C4)n2)c1 (stereo partly shown) [Example 117-1a] | 10 to 20 µM
CNCC(O)COc1cccc(-c2nc(NC3CCOC3)cc(-c3c(C)noc3C)n2)c1 (stereo not shown) [Example 31-1a] | 5 to 10 µM
CNCC(O)COc1cccc(-c2nc(OC3CCOCC3)c(C)c(-c3c(C)noc3C)n2)c1 (stereo not shown) [Example 181-1a] | < 5 µM
CNCC(O)COc1cccc(-c2nc(-c3c(C)noc3C)c(C)c(N(C)C3CCN(C(=O)OC)CC3)n2)c1 (stereo not shown) [Example 89-1a] | < 5 µM
CNCC(O)COc1cccc(-c2nc(NCCCN3CCCCCC3=O)cc(-c3c(C)noc3C)n2)c1 (stereo not shown) [Example 99-1a] | < 5 µM
CNC[C@@H](O)COc1ccc(Cl)c(-c2nc(NC3CC(C)C3)c(C)c(-c3c(C)noc3C)n2)c1 (stereo partly shown) [Example 230-3] | < 5 µM
CNCC(O)COc1cccc(-c2nc(-c3c(C)noc3C)cc(N3CCN(C(=O)OC)CC3)n2)c1 (stereo not shown) [Example 81-1a] | < 5 µM
CNCC(O)COc1cccc(-c2nc(NC3CCOCC3)c(C)c(N3CCN(C(C)C)CC3)n2)c1 (stereo not shown) [Example 644-1a] | ≥ 20 µM
CNCC(O)COc1ccc(Cl)c(-c2nc(NC3CCOCC3)c(C)c(-c3c(C)noc3C)n2)c1 (stereo not shown) [Example 29-3] | < 5 µM
CNCC(O)COc1cccc(-c2nc(N[C@H]3CCOC3=O)c(C)c(-c3c(C)noc3C)n2)c1 (stereo partly shown) [Example 281-1a] | 10 to 20 µM
